Experimental data published in patent publication US20100047841A1, “SYNTHESIS OF DESACETOXYTUBULYSIN H AND ANALOGS THEREOF” (University of Pittsburgh-of the Commonwealth System of …, priority 2007, published 2010).
Read-outs that look alike come from different tables or passages of the source.

Experiments:
[1] = system: bovine brain tubulin; assay: Inhibition of GTP-induced tubulin assembly (turbidimetry at 350 nm); type: biochemical; details: after 20 min at 30° C., 10 μM bovine brain tubulin, 0.8 M monosodium glutamate
Method: Bovine brain tubulin was isolated to electrophoretic homogeneity from fresh brains via methodology described by Hamel and Lin, Biochemistry 23: 4173-84 (1984). Tubulin (final concentration 10 μM; 1 mg/mL) was preincubated with test agents dissolved in DMSO (4% v/v final concentration) and monosodium glutamate (0.8 M final concentration, pH 6.6) for 15 minutes at 30° C. The reaction mixture was cooled to 0° C., and GTP (0.4 mM final concentration) was added. Reaction mixtures were transferred to cuvettes held at 2.5° C. in a Beckmann DU 7400 multichannel, temperature-controlled (Peltier unit) spectrophotometer, reading absorbance (turbidity) at 350 nm in each cuvette every 15 seconds. Baselines were established and temperature was quickly raised to 30° C. (in approximately 1 minute). After 20 minutes, the temperature was returned to 2.5° C. The turbidity value after 20 minutes at 30° C. for GTP alone was assigned as 100% assembly, and for DMSO alone as 0% assembly. The IC50 was calculated by linear regression of the percent assembly values at the same time point obtained with 0.625, 1.25, 2.5, 5, 10 and 20 μM test agent. In experiments to test for disassembly of preformed tubulin polymer, the test agent was added after 7 minutes of GTP-induced assembly.

[2] = system: T98G human glioblastoma cell line; assay: Antiproliferative assay (MTS), GI50 in T98G cells; type: cell-based
Description: General methods are known for determining the effect of compounds on proliferation of cells. See, e.g., Zhu et al., J. Med. Chem., 2006, 49, 2063-2076. Cells can be selected by one of skill in the art and can be maintained as exponentially growing cultures in a suitable medium (e.g., RPMI 1640 medium) with adjuvents, including FBS, penicillin, and glutamine, provided at levels known to those skilled in this field. For human cancer cells, e.g., human glioblastoma cell line T98G, the cells can be trypsinized and washed prior to formation of a cell suspension in appropriate buffer and plating of the cell suspension. Typical microtiter plate amounts can be 500-2000 cells/well. The cells can be allowed to attach and grow for a defined time period (e.g., 36 hours, 72 hours, 96 hours, or other defined period) before treatment with either vehicle (e.g., dimethylsulfoxide) or test agent (e.g., compound of the invention) followed by an additional defined time period (e.g., 36 hrs, 72 hrs, 96 hrs, and the like). At the end of the additional defined time period, viability of the cells can be determined by any of a variety of methods known in the art, including assays employing MTS (3-(4,5-dimethylthiazol-2-yl)-5-(3-carboxymethoxyphenyl)-2-(4-sulfophenyl)-2H-tetrazolium), as described by -Cory et al., Cancer Commun., 1991, 3, 207-212. […] Replicates are typically assayed to allow determination of appropriate statistical properties as known in the art.
Compounds of the invention with structures of Formulae Xa, XVb, and XVa were assayed for inhibition of growth of the T98G human glioblastoma cell line (Table II).
Human glioblastoma T98G cells (American Type Culture Collection, Manassas, Va.) were maintained as exponentially growing cultures in an RPMI 1640 medium with 10% FBS, 1% penicillin and 1% glutamine. The cells were seeded into 96-well plates and allowed to attach and grow for 48 hours. One plate of cells was used for a time zero cell number determination (N=16), and cells in other plates were treated for 72 hours or 96 hours with either DMSO (1% v/v; N=8 for each plate) or a range of concentrations, in quadruplicate, of test agents. Cell number was determined spectrophotometrically at 490 nm minus absorbance at 630 nm after exposure to 3-(4,5-dimethylthiazol-2-yl)-5-(3-carboxymethoxyphenyl)-2-(4-sulfophenyl)-2H-tetrazolium (MTS) and N-methylphenazine methylsulfate. The fifty percent growth inhibitory concentrations (GI50) of test agents were calculated from the spectrophotometrically determined growth of the control cells over the 72- or 96-hour period.

[3] = system: bovine brain tubulin (peptide/depsipeptide site); assay: Inhibition of [3H]dolastatin 10 binding to tubulin (centrifugal gel filtration); details: 10 μM radiotracer, 10 μM tubulin; for % Inhibition of [3H]dolastatin 10 binding by 5 μM test agent: 30 min room temperature
Method: (§1) The new compounds were tested for their abilities to bind at the vinca domain and at the related peptide/depsipeptide site on tubulin using a modification of a centrifugal gel filtration method described by Bai et al., Mol. Pharmacol. 7: 965-76 (1995). In the initial screens, each 0.32 mL reaction mixture contained 5 μM test agent and 10 μM [^3H]vinblastine (specific activity 8.50 Ci/mmol; GE Healthcare Bio-Sciences, Picataway, N.J.) or 10 μM [^3H]dolastatin 10 (specific activity 1.96 Ci/mmol; obtained from the Drug Synthesis and Chemistry Branch of the National Cancer Institute) predissolved in DMSO (final concentration 1% v/v) and 10 μM bovine brain tubulin, all in 0.1 M 2-(4-morpholino)ethanesulfonic acid (Mes), pH 6.9, containing 0.5 mM MgCl2. The mixture was incubated for 30 min at room temperature. Two 0.15 mL aliquots of the reaction mixture were applied to duplicate 2 mL beds of pre-swollen (in Mes, pH 6.9, containing 0.5 mM MgCl2) Sephadex G-50 (superfine) contained in Handee columns (Pierce Biotechnology, Rockford, Ill.). The columns were centrifuged at 800×g for 4 minutes and the protein concentration in the effluent was determined, using the bicinchoninic acid assay. The amount of radiolabeled ligand bound to tubulin was determined using scintillation spectrometry. Each value represents the mean ±SD of four determinations. […] Inhibition was calculated as the percent difference relative to that of the control incubation with DMSO (i.e., without test agent—assigned as 0% inhibition). […] GraphPad Prism was used to fit the resulting data to the Hill equation to determine the IC50 values.

[4] = system: bovine brain tubulin (vinca domain); assay: Inhibition of [3H]vinblastine binding to tubulin (centrifugal gel filtration); details: 10 μM radiotracer, 10 μM tubulin; for % Inhibition of [3H]vinblastine binding by 5 μM test agent: 30 min room temperature; for IC50: test agent 0.5-100 μM, Hill fit
Method: as §1

[5] = system: HeLa human cervical carcinoma cells; assay: High-content analysis of mitotic arrest in HeLa cells; type: cell-based; details: for Microtubule Density MDEC (minimum detectable effective concentration) / Mitotic Index MDEC (percentage of phosphohistone H3-positive cells) / Nuclear Condensation MDEC (minimum detectable effective concentration) / EC50: 20 hours treatment, average of four experiments ± SD; for EC50: Homo sapiens, read-out: Cell Density EC50; for activity in high-content analysis of mitotic arrest (in words): all endpoints measured
Method: The effects of tubulysin analogs on mitotic arrest and cellular microtubules were studied. HeLa human cervical carcinoma cells (10,000 per well) were plated in collagen-1 coated 384-well microplates and were treated with vehicle (DMSO) or ten two-fold concentration gradients of test agents within 4-6 hours of seeding. Cells were incubated for 20 hours at 37° C., fixed with formaldehyde, and labeled with 10 μg/mL Hoechst 33342 in Hank's balanced salt solution (HBSS). Cells were permeabilized with 0.5% (w/w) Triton X-100 for 5 min at room temperature and incubated with a primary antibody cocktail consisting of an HBSS solution containing rabbit polyclonal anti-phosphohistone H3 (Ser10, 1:500, Upstate), and mouse monoclonal anti-α-tubulin (1:3000, Sigma), followed by a mixture of FITC-labeled donkey anti-mouse IgG (1:500) and Cy3-labeled donkey anti-rabbit IgG (1:500). Cells were rinsed once with HBSS and stored at 4° C. in HBSS until analysis.
Microplates were analyzed with an ArrayScanII instrument (Cellomics, Pittsburgh, Pa.) using the Target Activation Bioapplication (Cellomics, Inc.). Within the application, 1,000 individual cells in each well were imaged at three different wavelengths, using an Omega XF93 filter set at excitation/emission wavelengths of 350/461 nm (Hoechst), 494/519 nm (FITC), and 556/573 nm (Cy3). The following parameters were used for data analysis: average nuclear intensity, nuclei per field, average nuclear FITC intensity, and average nuclear Cy3 intensity. A nuclear mask was generated from Hoechst 33342-stained nuclei. Microtubule density and histone H3 phosphorylation were measured in the FITC and Cy3 channel, respectively. Microtubule density was defined as the average green (FITC) pixel intensity in an area defined by the nuclear mask. For determination of mitotic index and nuclear condensation, thresholds for Hoechst 33342 and phosphohistone-H3 intensities were defined as the average Hoechst 33342 or Cy3 intensity plus one standard deviation from twenty-eight vehicle-treated wells placed in the center of the microplate.
Cells were classified as positive if their average Hoechst 33342 or Cy3 intensity exceeded this threshold. To illustrate visually the effects of test agents on cellular microtubules and mitotic arrest, the identical 384-well plates then were used to acquire higher resolution images of selected wells.
Asynchronously growing HeLa cells were treated for 20 hours with each compound in collagen-coated 384 well microplates, fixed, and incubated with primary antibodies for tubulin and the mitotic marker protein phosphohistone H3, followed by FITC and Cy3-conjugated secondary antibodies, respectively. Cells were detected by nuclear counterstaining with Hoechst 33342, which also provided information about chromatin condensation and cell density as markers of cell death.

[6] = system: bovine brain tubulin (vinca domain); assay: Inhibition of [3H]vinblastine binding to tubulin (centrifugal gel filtration); details: 50 μM test agent
[7] = Homo sapiens, T98G, 72 h (value in parentheses), ±SD, n = 4, Table IV, read-out: GI50 at (72 h) in T98 glioblastoma cells
[8] = Homo sapiens, T98G, 96 h, ±SD, n = 4, Table IV, read-out: GI50 at 96 h in T98 glioblastoma cells

Structure (SMILES) | IC50 [1] [nM] | GI50 [2, 7] [nM] | GI50 [2, 8] [nM] | % Inhibition of [3H]dolastatin 10 binding by 5 μM test agent [3] [%] | GI50 ([2]; 72 h (value in parentheses), ±SD, n = 4, Table IV, read-out: GI50 at (72 h) in T98 glioblastoma cells) [nM] | GI50 ([2]; 96 h, ±SD, n = 4, Table IV, read-out: GI50 at 96 h in T98 glioblastoma cells) [nM] | % Inhibition of [3H]vinblastine binding by 5 μM test agent [4] [%] | IC50 [4] [nM] | Microtubule Density MDEC (minimum detectable effective concentration) [5] [nM] | Mitotic Index MDEC (percentage of phosphohistone H3-positive cells) [5] [nM] | Nuclear Condensation MDEC (minimum detectable effective concentration) [5] [nM] | EC50 [5] [nM] | activity in high-content analysis of mitotic arrest (in words) [5] | GI50 ([2]; Homo sapiens, T98G cells, 72 h exposure, Table II, read-out: GI50 in T98G cell, 72 h) [nM] | GI50 ([2]; Homo sapiens, T98G cells, 96 h exposure, Table II, read-out: GI50 in T98G cell, 96 h) [nM] | GI50 ([2]; Homo sapiens, T98G cells, after 72 hrs exposure, read-out: GI50) [nM] | % Inhibition of [3H]vinblastine binding @50 μM [6] | IC50 ([3]; test agent 0.5-100 μM, Hill fit) [nM]
CC[C@]1(O)C[C@@H]2CN(CCc3c([nH]c4ccccc34)[C@@](C(=O)OC)(c3cc4c(cc3OC)N(C)[C@H]3[C@@](O)(C(=O)OC)[C@H](OC(C)=O)[C@]5(CC)C=CCN6CC[C@]43[C@@H]65)C2)C1 [vinblastine, reference compound] | 1600 | 8.6 | 1 ± 0.6 | 5 ± 6 |  |  |  |  |  |  |  |  |  |  |  |  |  | 
CC[C@H](C)[C@@H]([C@@H](CC(=O)N1CCC[C@H]1[C@H](OC)[C@@H](C)C(=O)N[C@@H](Cc1ccccc1)c1nccs1)OC)N(C)C(=O)[C@@H](NC(=O)[C@H](C(C)C)N(C)C)C(C)C [dolastatin 10, reference compound] | 1400 |  |  |  | 0.1 | 0.056 ± 0.025 | 61 ± 1 | 4600 ± 500 |  |  |  |  |  |  |  |  |  | 
CC(=O)O[C@H]1C(=O)[C@@]2(C)[C@H]([C@H](OC(=O)c3ccccc3)[C@]3(O)C[C@H](OC(=O)[C@H](O)[C@@H](NC(=O)c4ccccc4)c4ccccc4)C(C)=C1C3(C)C)[C@]1(OC(C)=O)CO[C@@H]1C[C@@H]2O [paclitaxel, reference compound] |  | 24 | 12 ± 7 |  |  |  |  |  | 7.0 ± 2.9 | 4.2 ± 3.6 | 10.2 ± 8.2 | 11.3 ± 2.7 | nanomolar activity | 24 ± 9 | 12 ± 7 | ~24 |  | 
CC[C@]1(O)C[C@H]2CN(CCc3c([nH]c4ccccc34)[C@@](C(=O)OC)(c3cc4c(cc3OC)N(C=O)[C@H]3[C@@](O)(C(=O)OC)[C@H](OC(C)=O)[C@]5(CC)C=CCN6CC[C@]43[C@@H]65)C2)C1 [vincristine, reference compound] |  |  |  | 21 ± 5 |  |  | 65 ± 2 | 4400 ± 700 | 10.5 ± 10.1 | 4.1 ± 1.9 | 2.6 ± 2.0 | 19.7 ± 10.7 | nanomolar activity |  |  |  | (@50 μM: 98 ± 1%) | 29000 ± 5000
